Data reported in US20250084096A1, “TERT-BUTYL (S)-2-(4-(PHENYL)-6H-THIENO[3, 2-F][1, 2, 4]TRIAZOLO[4, 3-A] [1,4]DIAZEPIN-6-YL) ACETATE DERIVATIVES AND RELATED COMPOUNDS AS BROMODOMAIN BRD4 INHIBITORS FOR TREATING CANCER” (Genentech, Inc., priority 2018, published 2025).

What was measured:
[1] = tested on: MYC expression; experiment: Myc mRNA assay in MV-4-11 cells; assay type: cell-based; details: for Maximum Inhibition (%) (mean) of MYC expression: 4 hours, QuantiGene 2.0; for IC50: Homo sapiens, MV4-11, 4 hours, QuantiGene 2.0, read-out: Inhibition of MYC expression Average IC50
Protocol: Pharmacologic inhibition of MYC is achievable through targeting BET bromodomains through small molecule binder or degrader mechanisms.
Test compounds diluted in DMSO were transferred to the cell plates, keeping final DMSO concentration consistent at 0.1%, and incubated for 4 hours at 37° C. […] Luminescence was read using an EnVision plate reader (PerkinElmer) and IC50s generated in Genedata Screener using a 4-parameter non-linear regression fit.

[2] = biological target: BRD4_BD1 bromodomain (Homo sapiens (Human), UniProt O60885); experiment: BRD4 BD1 biochemical binding assay (TR-FRET); details: displacement of biotinylated ligand Compound C
Protocol: (§1) The following assay was used to measure the IC50 for the test compounds ability to bind to the BRD4_BD1 and BRD4_BD2 bromodomains.
(§2) DMSO was backfilled to a final volume of 30 nL as required. […] 1× Assay Buffer was dispensed (5 μL per well) into Minimum Signal control wells. 5 μL of Solution A-3× was dispensed into test wells and Maximum Signal control wells (containing DMSO instead of test compound). Samples were incubated 10 minutes at room temperature. 5 μL of Solution B-3x was dispensed into all wells. Samples were incubated incubate for 10 minutes at room temperature. 5 μL of Solution C-3x was dispensed into all wells. Samples were incubated 40 minutes at room temperature. Plates were read using an Envision (Perkin Elmer) with the following settings: Detection—LANCE Dual Laser 50/200. […] Percentage inhibition was calculated relative to the Minimum Signal control and Maximum Signal control wells. IC50 values were derived by four parameter curve fitting using the Robust method.

[3] = biological target: BRD4_BD2 bromodomain (Homo sapiens (Human), UniProt O60885); experiment: BRD4 BD2 biochemical binding assay (TR-FRET); details: displacement of biotinylated ligand Compound C
Protocol: as §1, §2

[4] = biological target: T1, BRD4 (Homo sapiens (Human), UniProt O60885); experiment: BRD4 degradation assay in PC3-Steap1 cells; assay type: cell-based; details: for Dmax: complete loss = −100%, read-out: Sinf (maximum degradation, percent change in protein level)
Protocol: 2 μL of each sample from the serial dilution was transferred to 98 μL of assay media as an intermediate dilution. 5 μL of intermediate dilution was added to 45 μL of cell plate. Columns 1, 2, 23 and 24 were treated with only 0.2% w/v final concentration of DMSO for data normalization as “neutral controls”. After compound treatment, cell plates were stored in a 37° C. incubator for 4 hours.
Cell plate was incubated at room temperature for 20 minutes. Well contents were aspirated and washed with 100 μL/well PBS 3 times. 50 μL/well of PBS containing 0.5% w/v bovine serum albumen, 0.5% w/v Triton X-100 (Antibody Dilution Buffer) was added to each well. Samples were incubated for 30 minutes. Well contents were aspirated and washed 3 times with 100 μL/well of PBS. PBS was aspirated from the wells.
25 μL per well of BRD4 antibody diluted in buffer was added and incubated overnight at 4° C. On day-3 samples were washed 3 times with 100 μL/well of PBS. […] Samples were incubated for 2 hours at room temperature. Samples were washed 3 times with 100 μL PBS.
(§3) Quantitative fluorescence imaging of BRD4 was carried out using an Opera Phenix High-Content Screening System. […] Hoechst channel was used to identify nuclear region. […] Data analysis was carried out using Genedata Screener, with DMSO and no primary antibody control treated samples being used to define the 0% and 100% changes in BRD4. The dose-response log(inhibitor) vs. response was used to define the inflexion point of curve (IC50) and the plateau of the maximal effect. The Sit value reports degradation as percent change in protein level, so complete loss of the protein target is −100%. Sinf is the maximum degradation achieved, obtained by determining the bottom of a dose-response (where the S-shaped curve levels out).

[5] = biological target: T1, BRD4; experiment: BRD4 degradation assay in EoL-1 cells; assay type: cell-based; details: for Dmax: EOL1, 4 hours, complete loss = −100%, read-out: Sinf (maximum degradation, percent change in protein level)
Protocol: 2 μL of each sample from the serial dilution was transferred to 98 μL of assay media as an intermediate dilution. 5 μL of each well of the intermediate dilution was added to 45 μL of cell plate. Columns 1, 2, 23 and 24 were treated with only 0.2% final concentration of DMSO for data normalization as “neutral controls”. After compound treatment, cell plates were stored in a 37° C. incubator for 4 hours.
The cell plate was incubated at room temperature for 20 minutes. Well contents were aspirated and washed with 100 μL/well PBS 3 times. 50 μL/well of PBS (pH7.5) containing 0.5% w/v bovine serum albumen, 0.5% w/v Triton X-100 (Block/Permeabilzation Buffer) was added to each well. Samples were incubated for 20 minutes. Well contents were aspirated and washed 3 times with 100 μL/well of PBS. PBS was aspirated from the well and 50 μL per well of EoL-1 Block Buffer (PBS containing 10% Normal Goat Serum (Abcam #ab7481)) was added to each well. Plates were incubated at room temperature for 30 minutes. Block buffer was decanted from the wells.
25 μL per well of BRD4 antibody diluted in buffer was added and incubated overnight at 4° C. On day-2 samples were washed 3 times with 100 μL/well of PBS. […] Samples were incubated for 2 hours at room temperature. Samples were washed 3 times with 100 μL PBS.
as §3, with “Sinf” for “Sit”

[6] = 4 hours, immunofluorescence, read-out: Degradation of BRD4 Average EC50
[7] = read-out: Degradation of BRD4 Average EC50, 4 hours, immunofluorescence

In the case of Cc1sc2c(c1C)C(c1ccc(Cl)cc1)=N[C@@H](CC(=O)OC(C)(C)C)c1nnc(C)n1-2 [Compound A, tert-butyl (S)-2-(4-(4-chlorophenyl)-2,3,9-trimethyl-6H-thieno[3,2-f][1,2,4]triazolo[4,3-a][1,4]diazepin-6-yl)acetate, reference compound], the “Maximum Inhibition (%) (mean) of MYC expression” value (“Maximum Inhibition (%) (mean)” below) [1] is reported as 76.3% and the IC50 [1] is reported as 83.4 nM.
With CC(=O)NCC#Cc1ccc(C2=N[C@@H](CC(=O)OC(C)(C)C)c3nnc(C)n3-c3sc(C)c(C)c32)cc1 [Compound 10a, tert-butyl (S)-2-(4-(4-(3-acetamidoprop-1-yn-1-yl)phenyl)-2,3,9-trimethyl-6H-thieno[3,2-f][1,2,4]triazolo[4,3-a][1,4]diazepin-6-yl)acetate] the “Maximum Inhibition (%) (mean)” value [1] was 79.3%, the IC50 [1] was 7.1 nM and the IC50 [2] was 6.6 nM. It also gave an IC50 [3] of 10.7 nM, a DC50 [4, 6] greater than 20000 nM and a DC50 [5, 6] greater than 20000 nM.
In the case of Cc1sc2c(c1C)C(c1ccc(C#CCCN)cc1)=N[C@@H](CC(=O)OC(C)(C)C)c1nnc(C)n1-2 [Compound 4a, tert-butyl (S)-2-(4-(4-(4-aminobut-1-yn-1-yl)phenyl)-2,3,9-trimethyl-6H-thieno[3,2-f][1,2,4]triazolo[4,3-a][1,4]diazepin-6-yl)acetate], the “Maximum Inhibition (%) (mean)” value [1] is reported as 79.4%, the IC50 [1] is reported as 19.8 nM and the IC50 [2] is reported as 13 nM. For the same compound, the IC50 [3] was 17.7 nM, the Dmax ([4]; 4 hours) was -54.7% and the DC50 [4, 6] was 3.4 nM.
For Cc1sc2c(c1C)C(c1ccc(CCCN)cc1)=N[C@@H](CC(=O)OC(C)(C)C)c1nnc(C)n1-2 [Compound 9a, tert-butyl (S)-2-(4-(4-(3-aminopropyl)phenyl)-2,3,9-trimethyl-6H-thieno[3,2-f][1,2,4]triazolo[4,3-a][1,4]diazepin-6-yl)acetate], the “Maximum Inhibition (%) (mean)” value [1] was 78.1%, the IC50 [1] was 27.7 nM and the Dmax ([4]; 4 hours) was -57.6%.
With COC(=O)c1cc2c(cc1CS(C)(=O)=O)-c1cn(C)c(=O)c3[nH]cc(c13)CN2c1ncc(C#CCN)cc1F [Compound 15, methyl 4-(5-(3-aminoprop-1-yn-1-yl)-3-fluoropyridin-2-yl)-10-methyl-7-((methylsulfonyl)methyl)-11-oxo-3,4,10,11-tetrahydro-1H-1,4,10-triazadibenzo[cd,f]azulene-6-carboxylate] the “Maximum Inhibition (%) (mean)” value [1] was 75.7%, the IC50 [1] was 7.2 nM and the DC50 [4, 6] was greater than 20000 nM. It also gave a DC50 [5, 6] greater than 20000 nM.
With Cc1sc2c(c1C)C(c1ccc(C#CC(C)N)cc1)=N[C@@H](CC(=O)OC(C)(C)C)c1nnc(C)n1-2 (stereo partly drawn) [Compound 11a, tert-butyl 2-((6S)-4-(4-(3-aminobut-1-yn-1-yl)phenyl)-2,3,9-trimethyl-6H-thieno[3,2-f][1,2,4]triazolo[4,3-a][1,4]diazepin-6-yl)acetate] the “Maximum Inhibition (%) (mean)” value [1] was 72.5%, the IC50 [1] was 20.7 nM and the IC50 [2] was 14.1 nM. For the same compound, the IC50 [3] was 10.6 nM, the Dmax ([4]; 4 hours) was -43.3% and the DC50 [4, 6] was greater than 20000 nM.
In the case of CCC#Cc1ccc(C2=N[C@@H](CC(=O)OC(C)(C)C)c3nnc(C)n3-c3sc(C)c(C)c32)cc1 [Compound 13a, tert-butyl (S)-2-(4-(4-(but-1-yn-1-yl)phenyl)-2,3,9-trimethyl-6H-thieno[3,2-f][1,2,4]triazolo[4,3-a][1,4]diazepin-6-yl)acetate], the “Maximum Inhibition (%) (mean)” value [1] is reported as 71.6%, the IC50 [1] is reported as 162 nM and the IC50 [2] is reported as 23.4 nM. It also gave an IC50 [3] of 28.7 nM, a DC50 [4, 7] greater than 20000 nM and a DC50 [5, 7] greater than 20000 nM.
In the case of Cc1sc2c(c1C)C(c1ccc(C#CCNO)cc1)=N[C@@H](CC(=O)OC(C)(C)C)c1nnc(C)n1-2 [Compound 8a, tert-butyl (S)-2-(4-(4-(3-(hydroxyamino)prop-1-yn-1-yl)phenyl)-2,3,9-trimethyl-6H-thieno[3,2-f][1,2,4]triazolo[4,3-a][1,4]diazepin-6-yl)acetate], the “Maximum Inhibition (%) (mean)” value [1] is reported as 95.1%, the IC50 [1] is reported as 7.2 nM and the Dmax ([4]; 4 hours) is reported as -92.6%. It also gave a Dmax [5] of -92.2%.
Cc1sc2c(c1C)C(c1ccc(/C=C/CN)cc1)=N[C@@H](CC(=O)OC(C)(C)C)c1nnc(C)n1-2 [Compound 6a, tert-butyl (S,E)-2-(4-(4-(3-aminoprop-1-en-1-yl)phenyl)-2,3,9-trimethyl-6H-thieno[3,2-f][1,2,4]triazolo[4,3-a][1,4]diazepin-6-yl)acetate] was tested, and the “Maximum Inhibition (%) (mean)” value [1] was 88.4%, the IC50 [1] was 2 nM and the Dmax ([4]; 4 hours) was -73.1%. For the same compound, the Dmax [5] was -77.9%.
In the case of Cc1sc2c(c1C)C(c1ccc(C#CCO)cc1)=N[C@@H](CC(=O)OC(C)(C)C)c1nnc(C)n1-2 [Compound 7a, tert-butyl (S)-2-(4-(4-(3-hydroxyprop-1-yn-1-yl)phenyl)-2,3,9-trimethyl-6H-thieno[3,2-f][1,2,4]triazolo[4,3-a][1,4]diazepin-6-yl)acetate], the “Maximum Inhibition (%) (mean)” value [1] is reported as 72.9%, the IC50 [1] is reported as 25.7 nM and the IC50 [2] is reported as 17.8 nM. For the same compound, the IC50 [3] was 10.3 nM and the DC50 [4, 6] was greater than 20000 nM.
Cc1sc2c(c1C)C(c1ccc(C#CCN)cc1)=N[C@@H](CC(=O)OC(C)(C)C)c1nnc(C)n1-2 [Compound 1a, tert-butyl (S)-2-(4-(4-(3-aminoprop-1-yn-1-yl)phenyl)-2,3,9-trimethyl-6H-thieno[3,2-f][1,2,4]triazolo[4,3-a][1,4]diazepin-6-yl)acetate] was tested, and the “Maximum Inhibition (%) (mean)” value [1] was 89.1%, the IC50 [1] was 2.9 nM and the IC50 [2] was 15.5 nM. For the same compound, the IC50 [3] was 12.3 nM, the Dmax ([4]; 4 hours) was -84.6% and the DC50 [4, 6] was 1.4 nM. For the same compound, the DC50 [5, 6] was 1.3 nM and the Dmax [5] was -83.8%.
For Cc1sc2c(c1C)C(c1ccc(C#CCNC(=N)N)cc1)=N[C@@H](CC(=O)OC(C)(C)C)c1nnc(C)n1-2 [Compound 5a, tert-butyl (S)-2-(4-(4-(3-guanidinoprop-1-yn-1-yl)phenyl)-2,3,9-trimethyl-6H-thieno[3,2-f][1,2,4]triazolo[4,3-a][1,4]diazepin-6-yl)acetate], the “Maximum Inhibition (%) (mean)” value [1] was 87.6%, the IC50 [1] was 124 nM and the IC50 [2] was 7.2 nM. It also gave an IC50 [3] of 8.5 nM, a Dmax ([4]; 4 hours) of -86% and a DC50 [4, 6] of 101 nM.
In the case of Cc1sc2c(c1C)C(c1ccc(C#CC(C)(C)N)cc1)=N[C@@H](CC(=O)OC(C)(C)C)c1nnc(C)n1-2 [Compound 12a, tert-butyl (S)-2-(4-(4-(3-amino-3-methylbut-1-yn-1-yl)phenyl)-2,3,9-trimethyl-6H-thieno[3,2-f][1,2,4]triazolo[4,3-a][1,4]diazepin-6-yl)acetate], the “Maximum Inhibition (%) (mean)” value [1] is reported as 73.3% and the IC50 [1] is reported as 12.6 nM.
